Laboratory results reported in publication PMC5193436 (PLoS ONE, 2016).

Target: T1, Enolase 1 (αEnolase) (Homo sapiens, UniProt P06733)
T1 construct: gene ENO1; recombinant ENO1
Test: direct spectrophotometric PEP assay ([…] nm) with purified recombinant ENO1; NADH-coupled assay in lysates
Format: biochemical

T1 sequence (P06733 2-434): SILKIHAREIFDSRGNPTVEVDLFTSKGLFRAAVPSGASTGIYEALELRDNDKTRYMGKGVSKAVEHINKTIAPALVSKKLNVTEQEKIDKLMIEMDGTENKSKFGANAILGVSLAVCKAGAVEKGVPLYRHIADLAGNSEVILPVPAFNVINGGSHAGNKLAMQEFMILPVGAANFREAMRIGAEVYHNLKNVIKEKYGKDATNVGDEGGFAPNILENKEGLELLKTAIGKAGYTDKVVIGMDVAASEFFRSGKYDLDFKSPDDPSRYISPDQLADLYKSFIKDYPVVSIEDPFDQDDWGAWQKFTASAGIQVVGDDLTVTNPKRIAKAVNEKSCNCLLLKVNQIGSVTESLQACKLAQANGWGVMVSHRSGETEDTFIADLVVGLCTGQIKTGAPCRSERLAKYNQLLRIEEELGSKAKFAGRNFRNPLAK

O=C1C(P(=O)(O)O)CC(O)N1O (stereo not shown) [SF2312, 3-dihydroxyphosphoryl-1,5-dihydroxy-2-pyrrolidone]
direct spectrophotometric PEP assay (240 nm) with purified recombinant ENO1; NAD: SF2312 (c) on Enolase activity in purified recombinant ENO1 and ENO2 was determined using the direct PEP-detection assay
